Test results published in ChEMBL document CHEMBL1150976, “The selectivity of protein kinase inhibitors: a further update” (Biochem J, 2007).

How the values were obtained:
[1] = molecular target: Serine/threonine-protein kinase PAK 4 (Homo sapiens, UniProt O96013); assay: Percentage PAK4 activity remaining in the presence of 0.1uM inhibitor
[2] = molecular target: Maternal embryonic leucine zipper kinase (Homo sapiens) (UniProt Q14680); assay: Percentage MELK activity remaining in the presence of 0.1uM inhibitor
[3] = molecular target: Ribosomal protein S6 kinase alpha-1 (Homo sapiens) (UniProt Q15418); assay: Percentage RSK1 activity remaining in the presence of 0.1uM inhibitor
[4] = molecular target: MAP kinase-interacting serine/threonine-protein kinase 1 (Homo sapiens) (UniProt Q9BUB5); assay: Percentage MNK1 activity remaining in the presence of 0.1uM inhibitor
[5] = molecular target: Myosin light chain kinase, smooth muscle (Homo sapiens, UniProt Q15746); assay: Percentage SmMLCK activity remaining in the presence of 0.1uM inhibitor
[6] = molecular target: Serine/threonine-protein kinase Nek7 (Homo sapiens) (UniProt Q8TDX7); assay: Percentage NEK7 activity remaining in the presence of 0.1uM inhibitor
[7] = molecular target: cAMP-dependent protein kinase catalytic subunit alpha (Homo sapiens, UniProt P17612); assay: Percentage PKA activity remaining in the presence of 0.1uM inhibitor
[8] = molecular target: Mitogen-activated protein kinase 11 (Homo sapiens) (UniProt Q15759); assay: Percentage p38beta activity remaining in the presence of 0.1uM inhibitor
Aurora kinase B = Aurora kinase B (Homo sapiens, UniProt Q96GD4); assay: Percentage Aurora B activity remaining in the presence of 0.1uM inhibitor
[9] = molecular target: Casein kinase II (Homo sapiens) (UniProt P67870+P68400+P19784); assay: Percentage CK2 activity remaining in the presence of 0.1uM inhibitor; format: protein-complex assay
[10] = molecular target: T1, Dual specificity tyrosine-phosphorylation-regulated kinase 3 (Homo sapiens) (UniProt O43781); assay: Percentage DYRK3 activity remaining in the presence of 0.1uM inhibitor
T1 sequence (whole entry): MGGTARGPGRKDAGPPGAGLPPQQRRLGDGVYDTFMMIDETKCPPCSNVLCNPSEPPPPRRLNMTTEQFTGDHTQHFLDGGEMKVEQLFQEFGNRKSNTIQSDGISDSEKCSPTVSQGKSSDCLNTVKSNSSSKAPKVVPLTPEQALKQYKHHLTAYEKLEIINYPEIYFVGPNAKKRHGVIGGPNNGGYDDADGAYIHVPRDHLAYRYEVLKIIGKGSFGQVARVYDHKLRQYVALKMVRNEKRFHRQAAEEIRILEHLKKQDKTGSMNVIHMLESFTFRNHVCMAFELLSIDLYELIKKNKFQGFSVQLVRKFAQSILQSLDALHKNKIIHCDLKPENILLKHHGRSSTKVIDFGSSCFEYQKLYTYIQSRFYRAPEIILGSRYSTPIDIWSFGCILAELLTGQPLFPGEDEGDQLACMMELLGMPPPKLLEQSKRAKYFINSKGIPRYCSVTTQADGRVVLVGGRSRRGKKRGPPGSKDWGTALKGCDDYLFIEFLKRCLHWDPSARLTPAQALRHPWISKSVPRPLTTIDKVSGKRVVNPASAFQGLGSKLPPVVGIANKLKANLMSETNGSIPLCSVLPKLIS

[11] = molecular target: T2, Aurora kinase C (Homo sapiens) (UniProt Q9UQB9); assay: Percentage Aurora C activity remaining in the presence of 0.1uM inhibitor
T2 sequence (whole entry): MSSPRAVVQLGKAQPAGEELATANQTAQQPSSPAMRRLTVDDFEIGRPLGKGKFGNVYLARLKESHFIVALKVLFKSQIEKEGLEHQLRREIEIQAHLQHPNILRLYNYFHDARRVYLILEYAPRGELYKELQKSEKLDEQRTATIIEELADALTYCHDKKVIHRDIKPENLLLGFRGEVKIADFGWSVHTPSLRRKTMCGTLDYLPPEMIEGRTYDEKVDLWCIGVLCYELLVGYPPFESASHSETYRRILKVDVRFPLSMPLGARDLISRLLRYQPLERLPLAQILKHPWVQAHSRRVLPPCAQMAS

[12] = molecular target: Calcium/calmodulin-dependent protein kinase kinase 1 (Homo sapiens) (UniProt Q8N5S9); assay: Percentage CaMKKalpha activity remaining in the presence of 0.1uM inhibitor
[13] = molecular target: Serine/threonine-protein kinase N2 (Homo sapiens) (UniProt Q16513); assay: Percentage PRK2 activity remaining in the presence of 0.1uM inhibitor
[14] = molecular target: Cyclin-dependent kinase 2/cyclin A (Homo sapiens) (UniProt P24941+P20248+P78396); assay: Percentage CDK2-cyclinA activity remaining in the presence of 0.1uM inhibitor; format: protein-complex assay
[15] = molecular target: Mitogen-activated protein kinase 14 (Homo sapiens, UniProt Q16539); assay: Percentage p38alpha activity remaining in the presence of 0.1uM inhibitor
[16] = molecular target: Dual specificity tyrosine-phosphorylation-regulated kinase 1A (Homo sapiens) (UniProt Q13627); assay: Percentage DYRK1A activity remaining in the presence of 0.1uM inhibitor
[17] = molecular target: Mitogen-activated protein kinase 8 (Homo sapiens, UniProt P45983); assay: Percentage JNK1 activity remaining in the presence of 0.1uM inhibitor
[18] = molecular target: T3, Dual specificity tyrosine-phosphorylation-regulated kinase 2 (Homo sapiens) (UniProt Q92630); assay: Percentage DYRK2 activity remaining in the presence of 0.1uM inhibitor
T3 sequence (whole entry): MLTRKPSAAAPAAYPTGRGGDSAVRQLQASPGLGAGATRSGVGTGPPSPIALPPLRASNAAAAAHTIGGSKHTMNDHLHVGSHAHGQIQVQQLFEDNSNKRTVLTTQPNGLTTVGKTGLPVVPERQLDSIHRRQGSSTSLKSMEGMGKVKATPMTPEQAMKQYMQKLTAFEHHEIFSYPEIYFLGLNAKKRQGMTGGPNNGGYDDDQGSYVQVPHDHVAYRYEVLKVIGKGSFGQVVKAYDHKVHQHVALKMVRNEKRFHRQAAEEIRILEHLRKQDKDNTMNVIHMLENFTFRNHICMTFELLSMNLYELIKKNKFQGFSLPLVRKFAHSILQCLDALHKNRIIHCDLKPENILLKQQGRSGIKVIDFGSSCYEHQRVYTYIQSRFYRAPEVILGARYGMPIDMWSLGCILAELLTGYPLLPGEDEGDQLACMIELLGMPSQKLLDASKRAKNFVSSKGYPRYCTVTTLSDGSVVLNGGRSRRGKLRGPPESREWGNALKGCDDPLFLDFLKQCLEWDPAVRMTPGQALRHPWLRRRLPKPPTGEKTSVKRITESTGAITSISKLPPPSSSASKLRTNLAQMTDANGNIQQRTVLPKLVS

[19] = molecular target: Homeodomain-interacting protein kinase 2 (Homo sapiens) (UniProt Q9H2X6); assay: Percentage HIPK2 activity remaining in the presence of 0.1uM inhibitor
[20] = molecular target: Dual specificity mitogen-activated protein kinase kinase 1 (Homo sapiens) (UniProt Q02750); assay: Percentage MKK1 activity remaining in the presence of 0.1uM inhibitor
Sequence of Dual specificity mitogen-activated protein kinase kinase 1 (Homo sapiens) (Q02750 whole entry): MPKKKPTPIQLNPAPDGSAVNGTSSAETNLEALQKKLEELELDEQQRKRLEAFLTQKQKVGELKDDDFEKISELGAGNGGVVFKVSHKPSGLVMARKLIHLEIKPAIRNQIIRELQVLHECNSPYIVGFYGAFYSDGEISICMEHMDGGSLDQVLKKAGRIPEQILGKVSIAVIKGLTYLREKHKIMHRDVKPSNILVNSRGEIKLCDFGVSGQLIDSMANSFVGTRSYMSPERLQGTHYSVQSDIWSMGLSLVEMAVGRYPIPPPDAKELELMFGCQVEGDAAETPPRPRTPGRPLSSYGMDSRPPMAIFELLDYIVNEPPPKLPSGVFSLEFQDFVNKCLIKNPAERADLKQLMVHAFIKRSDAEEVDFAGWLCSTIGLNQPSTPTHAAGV

Sequence of Serine/threonine-protein kinase Nek7 (Homo sapiens) (Q8TDX7 whole entry, looked up): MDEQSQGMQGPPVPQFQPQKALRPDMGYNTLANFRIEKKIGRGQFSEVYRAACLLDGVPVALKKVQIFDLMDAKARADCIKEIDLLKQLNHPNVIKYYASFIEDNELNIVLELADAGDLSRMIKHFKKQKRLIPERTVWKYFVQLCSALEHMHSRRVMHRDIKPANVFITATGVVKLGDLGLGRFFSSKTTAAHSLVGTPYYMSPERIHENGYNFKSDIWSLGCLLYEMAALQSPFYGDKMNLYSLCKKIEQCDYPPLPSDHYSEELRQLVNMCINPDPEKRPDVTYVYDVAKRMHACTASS
Sequence of Serine/threonine-protein kinase PAK 4 (O96013 whole entry, looked up): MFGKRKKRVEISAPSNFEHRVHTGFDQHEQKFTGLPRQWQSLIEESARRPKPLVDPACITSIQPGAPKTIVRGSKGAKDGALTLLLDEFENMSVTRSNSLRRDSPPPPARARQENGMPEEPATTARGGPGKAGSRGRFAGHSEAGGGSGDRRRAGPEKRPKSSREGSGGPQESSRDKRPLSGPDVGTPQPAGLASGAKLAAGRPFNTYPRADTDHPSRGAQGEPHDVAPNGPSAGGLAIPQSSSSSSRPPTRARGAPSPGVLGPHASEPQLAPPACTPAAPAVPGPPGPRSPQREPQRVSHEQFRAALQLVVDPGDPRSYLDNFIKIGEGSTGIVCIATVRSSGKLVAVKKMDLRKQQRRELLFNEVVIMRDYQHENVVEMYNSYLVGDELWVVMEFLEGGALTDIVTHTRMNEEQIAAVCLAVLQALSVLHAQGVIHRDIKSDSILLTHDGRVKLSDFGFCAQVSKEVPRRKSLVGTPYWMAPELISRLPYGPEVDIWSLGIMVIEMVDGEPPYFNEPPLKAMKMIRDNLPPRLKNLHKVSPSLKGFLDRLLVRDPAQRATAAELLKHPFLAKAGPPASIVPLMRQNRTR
Sequence of Serine/threonine-protein kinase N2 (Homo sapiens) (Q16513 whole entry, looked up): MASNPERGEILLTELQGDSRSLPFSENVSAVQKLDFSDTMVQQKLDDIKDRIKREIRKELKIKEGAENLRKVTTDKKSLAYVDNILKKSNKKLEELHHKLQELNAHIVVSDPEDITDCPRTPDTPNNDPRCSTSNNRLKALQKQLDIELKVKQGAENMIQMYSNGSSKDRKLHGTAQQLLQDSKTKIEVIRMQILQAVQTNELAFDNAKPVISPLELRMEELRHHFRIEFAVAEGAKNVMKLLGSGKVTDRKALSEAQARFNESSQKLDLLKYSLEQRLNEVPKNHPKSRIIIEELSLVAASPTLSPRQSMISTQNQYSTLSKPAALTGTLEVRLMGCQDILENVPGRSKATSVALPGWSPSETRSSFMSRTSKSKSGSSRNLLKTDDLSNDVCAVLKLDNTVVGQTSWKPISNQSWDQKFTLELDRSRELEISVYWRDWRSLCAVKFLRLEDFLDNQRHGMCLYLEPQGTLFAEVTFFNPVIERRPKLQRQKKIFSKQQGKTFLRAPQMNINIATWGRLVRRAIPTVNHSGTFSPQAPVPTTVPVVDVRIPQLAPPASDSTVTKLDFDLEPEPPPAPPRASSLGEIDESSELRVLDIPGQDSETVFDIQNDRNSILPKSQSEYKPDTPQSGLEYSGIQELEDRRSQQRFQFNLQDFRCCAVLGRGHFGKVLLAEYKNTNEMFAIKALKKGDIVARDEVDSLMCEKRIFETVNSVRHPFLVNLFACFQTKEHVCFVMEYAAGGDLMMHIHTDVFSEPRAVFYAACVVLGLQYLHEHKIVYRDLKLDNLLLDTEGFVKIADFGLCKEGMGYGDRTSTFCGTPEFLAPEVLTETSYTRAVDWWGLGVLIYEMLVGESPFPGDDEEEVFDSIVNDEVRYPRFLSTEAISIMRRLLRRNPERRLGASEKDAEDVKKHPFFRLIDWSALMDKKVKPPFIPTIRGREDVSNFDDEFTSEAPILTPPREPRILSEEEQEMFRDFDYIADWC
Sequence of Myosin light chain kinase, smooth muscle (Q15746 whole entry): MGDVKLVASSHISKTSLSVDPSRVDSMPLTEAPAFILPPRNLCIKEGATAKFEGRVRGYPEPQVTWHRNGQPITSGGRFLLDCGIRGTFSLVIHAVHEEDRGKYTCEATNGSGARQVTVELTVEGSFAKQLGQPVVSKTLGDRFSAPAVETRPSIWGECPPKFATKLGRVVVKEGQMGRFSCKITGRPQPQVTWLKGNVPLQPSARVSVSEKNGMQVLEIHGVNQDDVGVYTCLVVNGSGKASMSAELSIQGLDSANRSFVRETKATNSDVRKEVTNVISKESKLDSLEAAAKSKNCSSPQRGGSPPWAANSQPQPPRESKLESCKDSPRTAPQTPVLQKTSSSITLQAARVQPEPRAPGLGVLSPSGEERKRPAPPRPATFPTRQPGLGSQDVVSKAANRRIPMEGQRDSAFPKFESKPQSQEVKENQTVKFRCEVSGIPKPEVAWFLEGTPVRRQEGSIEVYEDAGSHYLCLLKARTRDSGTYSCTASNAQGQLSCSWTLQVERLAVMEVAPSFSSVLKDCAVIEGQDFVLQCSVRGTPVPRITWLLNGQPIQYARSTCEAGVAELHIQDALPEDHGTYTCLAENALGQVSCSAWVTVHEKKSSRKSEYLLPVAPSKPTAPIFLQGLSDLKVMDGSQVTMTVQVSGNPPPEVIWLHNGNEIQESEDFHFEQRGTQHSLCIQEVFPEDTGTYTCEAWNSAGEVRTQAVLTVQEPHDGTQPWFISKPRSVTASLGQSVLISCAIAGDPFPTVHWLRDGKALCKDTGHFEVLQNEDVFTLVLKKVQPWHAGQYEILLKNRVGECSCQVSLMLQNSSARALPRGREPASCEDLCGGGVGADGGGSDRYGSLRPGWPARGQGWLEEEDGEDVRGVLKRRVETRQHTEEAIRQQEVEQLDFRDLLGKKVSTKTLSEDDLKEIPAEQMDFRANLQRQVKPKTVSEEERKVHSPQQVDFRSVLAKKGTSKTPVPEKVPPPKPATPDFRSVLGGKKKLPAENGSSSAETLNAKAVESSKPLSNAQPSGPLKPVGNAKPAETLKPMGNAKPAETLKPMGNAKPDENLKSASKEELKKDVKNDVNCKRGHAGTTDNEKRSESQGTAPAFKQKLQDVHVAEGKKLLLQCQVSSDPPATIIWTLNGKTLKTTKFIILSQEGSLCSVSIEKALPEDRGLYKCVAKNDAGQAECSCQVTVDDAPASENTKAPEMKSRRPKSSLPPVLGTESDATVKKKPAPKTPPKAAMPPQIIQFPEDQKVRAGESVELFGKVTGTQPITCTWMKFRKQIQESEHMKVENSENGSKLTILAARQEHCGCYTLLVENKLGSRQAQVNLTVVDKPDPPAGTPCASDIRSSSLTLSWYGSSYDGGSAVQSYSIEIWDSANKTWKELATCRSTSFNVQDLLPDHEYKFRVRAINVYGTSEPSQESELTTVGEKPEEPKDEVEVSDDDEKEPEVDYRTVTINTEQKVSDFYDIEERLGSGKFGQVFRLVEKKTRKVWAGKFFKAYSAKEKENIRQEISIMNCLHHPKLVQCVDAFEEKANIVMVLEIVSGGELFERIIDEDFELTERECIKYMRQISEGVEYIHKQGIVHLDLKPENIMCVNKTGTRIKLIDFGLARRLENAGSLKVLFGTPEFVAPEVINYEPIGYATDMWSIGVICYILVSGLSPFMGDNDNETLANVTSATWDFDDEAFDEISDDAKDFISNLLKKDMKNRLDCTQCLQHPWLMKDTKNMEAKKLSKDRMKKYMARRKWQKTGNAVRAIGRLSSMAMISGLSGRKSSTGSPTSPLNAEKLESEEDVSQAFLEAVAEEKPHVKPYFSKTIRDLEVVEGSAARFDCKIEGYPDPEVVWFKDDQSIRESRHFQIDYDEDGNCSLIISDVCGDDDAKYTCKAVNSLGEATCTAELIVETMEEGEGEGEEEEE
Sequence of Mitogen-activated protein kinase 14 (Q16539 whole entry): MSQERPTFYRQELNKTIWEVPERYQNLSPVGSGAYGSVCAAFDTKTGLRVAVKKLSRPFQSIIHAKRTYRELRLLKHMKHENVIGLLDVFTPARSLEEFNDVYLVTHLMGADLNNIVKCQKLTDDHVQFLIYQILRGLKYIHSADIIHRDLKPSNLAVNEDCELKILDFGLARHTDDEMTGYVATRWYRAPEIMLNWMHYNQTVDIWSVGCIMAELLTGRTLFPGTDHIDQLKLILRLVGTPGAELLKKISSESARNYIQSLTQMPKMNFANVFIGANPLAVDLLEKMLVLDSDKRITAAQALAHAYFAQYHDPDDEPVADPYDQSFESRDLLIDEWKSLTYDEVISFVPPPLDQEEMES
Sequence of MAP kinase-interacting serine/threonine-protein kinase 1 (Homo sapiens) (Q9BUB5 whole entry, looked up): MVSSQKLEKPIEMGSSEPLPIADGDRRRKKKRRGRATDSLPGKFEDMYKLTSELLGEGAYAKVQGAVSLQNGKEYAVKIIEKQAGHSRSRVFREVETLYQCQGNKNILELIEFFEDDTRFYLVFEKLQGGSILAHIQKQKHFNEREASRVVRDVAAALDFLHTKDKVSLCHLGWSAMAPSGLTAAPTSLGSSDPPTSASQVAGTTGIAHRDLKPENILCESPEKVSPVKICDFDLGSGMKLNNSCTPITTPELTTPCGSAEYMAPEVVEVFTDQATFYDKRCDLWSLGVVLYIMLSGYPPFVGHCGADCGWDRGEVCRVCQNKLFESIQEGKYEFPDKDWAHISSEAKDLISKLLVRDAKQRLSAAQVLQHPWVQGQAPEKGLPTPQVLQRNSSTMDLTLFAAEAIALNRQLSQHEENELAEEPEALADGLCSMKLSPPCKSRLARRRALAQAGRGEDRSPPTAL

Row | Structure (SMILES) | Activity [2] | Activity [4] | Activity [5] | Activity [6] | Activity [7] | Activity [8] | Activity (Aurora kinase B) | Activity [9] | Activity [10] | Activity [11] | Activity [12] | Activity ([14]; filed as antagonist) | Activity [15] | Activity [16] | Activity [17] | Activity [18] | Activity [19] | Activity ([3]; filed as antagonist) | Activity ([13]; filed as antagonist) | Activity [1] | also measured
1 | CC(C)[C@H](CO)Nc1nc(Nc2cccc(Cl)c2)c2ncn(C(C)C)c2n1 [PURVALANOLA] | 72% | 92% | 86% | 105% | 79% | 90% | 89% | 99% | 89% | 85% | 76% | 9% | 95% | 88% | 100% | 91% | – | – | – | – | Activity ([1]; filed as antagonist): 43%; Activity [3]: 74%; Activity [13]: 81%
2 | Cn1c2ccccc2c2c3c(c4c5ccccc5n(CCC#N)c4c21)CNC3=O | – | 67% | – | 98% | – | 100% | – | 88% | – | – | – | 8% | 100% | – | 69% | – | 63% | 6% | 5% | – | Activity ([1]; filed as antagonist): 5%; Activity ([2]; filed as antagonist): 15%; Activity ([5]; filed as antagonist): 40%; Activity ([7]; filed as antagonist): 50%; Activity ([20]; filed as antagonist): 34%; Activity (Aurora kinase B; filed as antagonist): 17%; Activity ([10]; filed as antagonist): 28%; Activity ([11]; filed as antagonist): 44%; Activity ([12]; filed as antagonist): 27%; Activity ([16]; filed as antagonist): 30%; Activity ([18]; filed as antagonist): 49%
3 | O=C(NCCCNc1nc(Nc2cccc(NC(=O)N3CCCC3)c2)ncc1I)c1cccs1 | – | – | 95% | 99% | 72% | 71% | – | 93% | 65% | – | 69% | 10% | 87% | 83% | 85% | 76% | 101% | – | 43% | 71% | Activity ([2]; filed as antagonist): 32%; Activity [3]: 55%; Activity ([4]; filed as antagonist): 37%; Activity ([20]; filed as antagonist): 33%; Activity (Aurora kinase B; filed as antagonist): 3%; Activity ([11]; filed as antagonist): 9%
4 | CC(C)CCN1c2nc(Nc3cc(F)c(O)c(F)c3)ncc2N(C)C(=O)C1C (configuration not stated) | – | 87% | 107% | 108% | 89% | 100% | – | 97% | 91% | 76% | 92% | – | 88% | 96% | 88% | 91% | 103% | 1% | – | 81% | Activity ([2]; filed as antagonist): 40%; Activity [20]: 98%; Activity (Aurora kinase B; filed as antagonist): 22%; Activity [13]: 97%; Activity [14]: 84%
5 | Cn1cc(C2=C(c3cn(CCCSC(=N)N)c4ccccc34)C(=O)NC2=O)c2ccccc21 | 61% | 95% | 63% | 101% | 51% | 99% | 80% | 99% | 55% | 77% | 104% | 3% | 102% | – | 93% | 90% | 88% | 11% | 8% | 75% | Activity [20]: 87%; Activity ([16]; filed as antagonist): 31%
6 | CN(C)C[C@@H]1CCn2cc(c3ccccc32)C2=C(C(=O)NC2=O)c2cn(c3ccccc23)CCO1 | – | 94% | 66% | 104% | 59% | 109% | 65% | 89% | 64% | 92% | 97% | – | – | 74% | 87% | 85% | 63% | 10% | 38% | 75% | Activity ([20]; filed as antagonist): 42%; Activity [14]: 68%
7 | Cc1n[nH]c2ccc(-c3cncc(OC[C@@H](N)Cc4c[nH]c5ccccc45)c3)cc12 | 63% | 109% | – | 84% | – | 105% | 80% | 90% | – | 92% | 117% | – | 92% | – | 90% | – | – | 32% | 2% | 90% | Activity ([19]; filed as antagonist): 24%; Activity ([5]; filed as antagonist): 27%; Activity ([7]; filed as antagonist): 3%; Activity [20]: 67%; Activity ([10]; filed as antagonist): 8%; Activity ([16]; filed as antagonist): 7%; Activity ([18]; filed as antagonist): 26%
